Source: ChEMBL document CHEMBL6083275, “Discovery and evaluation of HW161023 as a potent and orally active AAK1 inhibitor” (Bioorg Med Chem Lett, 2024)

Legend:
[1] = Clearance in C57BL/6J mouse at 1 mg/kg, iv; type: ADME, organism-based; conditions: in vivo
[2] = Apparent volume of distribution in C57BL/6J mouse at 1 mg/kg, iv; type: ADME, organism-based; conditions: in vivo, read-out: Vz
[3] = Half-life in C57BL/6J mouse at 1 mg/kg, iv; type: ADME, organism-based; conditions: in vivo
[4] = Tmax in C57BL/6J mouse at 10 mg/kg, po; type: ADME, organism-based; conditions: in vivo
[5] = AUC (0 to 24 hrs) in C57BL/6J mouse at 10 mg/kg, po; type: ADME, organism-based; conditions: in vivo
[6] = Oral bioavailability in C57BL/6J mouse at 10 mg/kg; type: ADME, organism-based; conditions: in vivo
[7] = Metabolic stability in human liver microsomes assessed as half-life; type: ADME, Microsome
[8] = Metabolic stability in mouse liver microsomes assessed as half-life; type: ADME, Microsome
[9] = Metabolic stability in rat liver microsomes assessed as half-life; type: ADME, Microsome
[10] = Metabolic stability in dog liver microsomes assessed as half-life; type: ADME, Canis lupus familiaris, Microsome
[11] = Protein binding in human plasma assessed as unbound fraction; type: ADME, cell-free
[12] = Protein binding in mouse plasma assessed as unbound fraction; type: ADME, cell-free
[13] = Protein binding in rat plasma assessed as unbound fraction; type: ADME, cell-free
[14] = Protein binding in dog plasma assessed as unbound fraction; type: ADME, cell-free, Canis lupus familiaris
[15] = biological target: Voltage-gated inwardly rectifying potassium channel KCNH2 (Homo sapiens, UniProt Q12809); assay: Inhibition of human ERG by patch clamp assay; type: toxicity
[16] = Cytotoxicity against human HepG2 cells; type: toxicity, cell-based
CYP2C9 = CYP2C9 (Homo sapiens, UniProt P11712); assay: Inhibition of CYP2C9 (unknown origin) at 10 uM relative to control; type: ADME
CYP2D6 = CYP2D6 (Homo sapiens, UniProt P10635); assay: Inhibition of CYP2D6 (unknown origin) at 10 uM relative to control; type: ADME
CYP3A4 [17] = biological target: T1, CYP3A4 (Homo sapiens, UniProt P08684); assay: Inhibition of CYP3A4 (unknown origin) using midazolam as substrate at 10 uM relative to control; type: ADME; conditions: probe midazolam
CYP3A4 [18] = biological target: T1, CYP3A4; assay: Inhibition of CYP3A4 (unknown origin) using testosterone as substrate at 10 uM relative to control; type: ADME; conditions: probe testosterone
[19] = Metabolic stability in hepatocytes (unknown origin) assessed as half-life; type: ADME, cell-based, Hepatocyte
[20] = AUC (0 to 24 hrs) in rat at 10 mg/kg, po; type: ADME, organism-based; conditions: in vivo
[21] = Tmax in rat at 10 mg/kg, po; type: ADME, organism-based; conditions: in vivo
[22] = Oral bioavailability in rat at 10 mg/kg; type: ADME, organism-based; conditions: in vivo
[23] = Apparent volume of distribution in rat at 1 mg/kg, iv; type: ADME, organism-based; conditions: in vivo, read-out: Vz
[24] = Half-life in rat at 1 mg/kg, iv; type: ADME, organism-based; conditions: in vivo
[25] = Clearance in rat at 1 mg/kg, iv; type: ADME, organism-based; conditions: in vivo
[26] = AUC (0 to 24 hrs) in dog at 5 mg/kg, po; type: ADME, organism-based, Canis lupus familiaris; conditions: in vivo
[27] = Tmax in dog at 5 mg/kg, po; type: ADME, organism-based, Canis lupus familiaris; conditions: in vivo
[28] = Oral bioavailability in dog at 5 mg/kg; type: ADME, organism-based, Canis lupus familiaris; conditions: in vivo
[29] = Apparent volume of distribution in dog at 1 mg/kg, iv; type: ADME, organism-based, Canis lupus familiaris; conditions: in vivo, read-out: Vz
[30] = Half-life in dog at 1 mg/kg, iv; type: ADME, organism-based, Canis lupus familiaris; conditions: in vivo
[31] = Clearance in dog at 1 mg/kg, iv; type: ADME, organism-based, Canis lupus familiaris; conditions: in vivo
Rattus norvegicus = assay: Analgesic activity in sciatic nerved CCI-induced neuropathic pain rat model assessed as reduction in mechanical hyperalgesia at 10 mg/kg, po administered from day 14 post CCI-surgery and measured after 3.5 to 5.5 hrs by Von Frey test; type: functional, organism-based; conditions: time 3.5-5.5 hrs
[32] = biological target: T2, Cyclin-G-associated kinase (Homo sapiens) (UniProt O14976); assay: Inhibition of wildtype GAK (unknown origin) at 1 uM relative to control
T2 sequence (whole entry): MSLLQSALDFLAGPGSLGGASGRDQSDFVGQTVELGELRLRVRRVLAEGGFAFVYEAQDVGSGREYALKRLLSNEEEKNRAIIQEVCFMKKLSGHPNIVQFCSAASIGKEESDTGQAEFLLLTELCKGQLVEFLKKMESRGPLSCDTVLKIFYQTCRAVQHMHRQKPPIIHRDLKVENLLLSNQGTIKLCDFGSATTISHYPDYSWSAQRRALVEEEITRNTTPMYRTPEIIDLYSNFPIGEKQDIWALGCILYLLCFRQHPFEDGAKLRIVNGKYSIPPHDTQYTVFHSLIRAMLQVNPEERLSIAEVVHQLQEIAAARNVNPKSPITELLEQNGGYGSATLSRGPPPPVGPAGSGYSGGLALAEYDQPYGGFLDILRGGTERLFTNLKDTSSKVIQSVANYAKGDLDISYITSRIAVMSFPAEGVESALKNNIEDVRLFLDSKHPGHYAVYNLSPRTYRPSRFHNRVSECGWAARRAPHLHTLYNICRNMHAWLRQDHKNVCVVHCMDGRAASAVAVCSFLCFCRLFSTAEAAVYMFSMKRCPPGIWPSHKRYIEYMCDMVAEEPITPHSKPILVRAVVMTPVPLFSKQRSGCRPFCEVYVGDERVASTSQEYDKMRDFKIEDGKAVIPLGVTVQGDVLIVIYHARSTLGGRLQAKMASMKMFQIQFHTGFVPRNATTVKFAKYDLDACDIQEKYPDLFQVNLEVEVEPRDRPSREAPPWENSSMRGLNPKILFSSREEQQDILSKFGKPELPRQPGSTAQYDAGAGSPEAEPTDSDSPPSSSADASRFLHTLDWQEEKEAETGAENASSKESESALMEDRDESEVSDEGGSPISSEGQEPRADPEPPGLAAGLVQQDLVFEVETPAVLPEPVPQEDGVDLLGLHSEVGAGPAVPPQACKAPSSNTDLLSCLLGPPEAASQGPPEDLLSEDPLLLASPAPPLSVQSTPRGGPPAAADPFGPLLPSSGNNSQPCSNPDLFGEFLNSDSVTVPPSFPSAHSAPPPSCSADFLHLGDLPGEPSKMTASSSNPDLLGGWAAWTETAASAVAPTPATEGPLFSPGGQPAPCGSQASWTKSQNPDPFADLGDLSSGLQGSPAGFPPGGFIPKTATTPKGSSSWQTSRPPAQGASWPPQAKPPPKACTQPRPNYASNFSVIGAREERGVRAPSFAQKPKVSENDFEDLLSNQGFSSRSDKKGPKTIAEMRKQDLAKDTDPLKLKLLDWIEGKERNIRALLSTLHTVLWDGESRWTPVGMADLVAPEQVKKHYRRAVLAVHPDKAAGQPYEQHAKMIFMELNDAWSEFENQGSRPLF

[33] = biological target: MAP kinase-interacting serine/threonine-protein kinase 1 (Homo sapiens) (UniProt Q9BUB5); assay: Inhibition of wildtype MNK1 (unknown origin) at 1 uM relative to control
[34] = biological target: MAP kinase-interacting serine/threonine-protein kinase 2 (Homo sapiens) (UniProt Q9HBH9); assay: Inhibition of wildtype MNK2 (unknown origin) at 1 uM relative to control
[35] = biological target: T3, cGMP-dependent protein kinase 2 (Homo sapiens) (UniProt Q13237); assay: Inhibition of wildtype CGK2 (unknown origin) at 1 uM relative to control
T3 sequence (whole entry): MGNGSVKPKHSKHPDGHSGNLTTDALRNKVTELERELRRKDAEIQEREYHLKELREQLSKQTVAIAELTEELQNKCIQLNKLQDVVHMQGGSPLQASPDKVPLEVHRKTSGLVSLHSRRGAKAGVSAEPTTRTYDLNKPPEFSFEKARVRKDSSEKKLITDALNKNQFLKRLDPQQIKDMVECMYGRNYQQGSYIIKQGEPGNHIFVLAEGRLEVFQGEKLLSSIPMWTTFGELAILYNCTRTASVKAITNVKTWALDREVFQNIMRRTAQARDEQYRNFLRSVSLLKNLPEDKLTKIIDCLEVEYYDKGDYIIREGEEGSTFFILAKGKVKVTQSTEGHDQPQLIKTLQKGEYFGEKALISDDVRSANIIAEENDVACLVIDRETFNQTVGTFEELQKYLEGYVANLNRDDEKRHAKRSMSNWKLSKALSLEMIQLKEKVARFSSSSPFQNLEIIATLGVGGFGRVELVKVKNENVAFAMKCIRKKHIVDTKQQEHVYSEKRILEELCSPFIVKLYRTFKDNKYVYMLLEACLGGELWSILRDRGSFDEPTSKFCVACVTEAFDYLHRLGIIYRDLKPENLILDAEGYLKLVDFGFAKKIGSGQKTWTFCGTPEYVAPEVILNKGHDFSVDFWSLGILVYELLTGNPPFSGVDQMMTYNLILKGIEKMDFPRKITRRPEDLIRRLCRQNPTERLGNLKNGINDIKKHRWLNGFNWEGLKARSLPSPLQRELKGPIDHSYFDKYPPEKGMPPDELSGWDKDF

[36] = biological target: Citron Rho-interacting kinase (Homo sapiens) (UniProt O14578); assay: Inhibition of wildtype CRIK (unknown origin) at 1 uM relative to control
[37] = biological target: BMP-2-inducible protein kinase (Homo sapiens) (UniProt Q9NSY1); assay: Inhibition of wildtype BIKE (unknown origin) at 1 uM relative to control
[38] = Cmax in C57BL/6J mouse at 10 mg/kg, po; type: ADME, organism-based; conditions: in vivo
[39] = Half-life in C57BL/6J mouse at 10 mg/kg, po; type: ADME, organism-based; conditions: in vivo
[40] = AUC (0 to 24 hrs) in C57BL/6J mouse at 1 mg/kg, iv; type: ADME, organism-based; conditions: in vivo
[41] = biological target: AP2-associated protein kinase 1 (Homo sapiens, UniProt Q2M2I8); assay: Inhibition of AAK1 (unknown origin)
AP2-associated protein kinase 1, sequence (Q2M2I8 whole entry): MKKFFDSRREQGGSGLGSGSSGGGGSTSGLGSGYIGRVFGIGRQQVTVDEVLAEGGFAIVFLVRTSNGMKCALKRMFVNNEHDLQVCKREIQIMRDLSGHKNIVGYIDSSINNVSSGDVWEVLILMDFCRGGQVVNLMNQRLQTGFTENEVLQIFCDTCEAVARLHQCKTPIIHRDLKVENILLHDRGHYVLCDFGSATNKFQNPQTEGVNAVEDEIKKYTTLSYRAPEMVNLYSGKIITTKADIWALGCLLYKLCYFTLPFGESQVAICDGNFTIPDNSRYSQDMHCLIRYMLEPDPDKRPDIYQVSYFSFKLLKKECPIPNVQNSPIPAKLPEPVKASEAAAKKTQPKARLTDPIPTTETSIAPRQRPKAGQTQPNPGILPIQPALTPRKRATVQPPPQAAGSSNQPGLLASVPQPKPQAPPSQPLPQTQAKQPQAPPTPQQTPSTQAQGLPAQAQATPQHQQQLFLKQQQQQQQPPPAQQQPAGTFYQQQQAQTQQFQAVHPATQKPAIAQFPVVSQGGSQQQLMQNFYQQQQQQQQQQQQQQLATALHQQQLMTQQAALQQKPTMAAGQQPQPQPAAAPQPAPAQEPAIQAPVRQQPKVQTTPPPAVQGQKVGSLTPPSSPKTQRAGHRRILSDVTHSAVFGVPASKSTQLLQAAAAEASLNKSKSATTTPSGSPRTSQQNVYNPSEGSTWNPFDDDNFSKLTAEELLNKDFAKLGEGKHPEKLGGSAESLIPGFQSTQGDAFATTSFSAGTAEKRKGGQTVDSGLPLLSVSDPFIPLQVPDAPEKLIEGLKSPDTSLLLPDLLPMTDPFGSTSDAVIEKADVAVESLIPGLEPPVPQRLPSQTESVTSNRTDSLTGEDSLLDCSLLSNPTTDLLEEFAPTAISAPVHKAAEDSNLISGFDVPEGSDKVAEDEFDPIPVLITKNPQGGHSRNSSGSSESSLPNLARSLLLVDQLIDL

T1 sequence (P08684 whole entry): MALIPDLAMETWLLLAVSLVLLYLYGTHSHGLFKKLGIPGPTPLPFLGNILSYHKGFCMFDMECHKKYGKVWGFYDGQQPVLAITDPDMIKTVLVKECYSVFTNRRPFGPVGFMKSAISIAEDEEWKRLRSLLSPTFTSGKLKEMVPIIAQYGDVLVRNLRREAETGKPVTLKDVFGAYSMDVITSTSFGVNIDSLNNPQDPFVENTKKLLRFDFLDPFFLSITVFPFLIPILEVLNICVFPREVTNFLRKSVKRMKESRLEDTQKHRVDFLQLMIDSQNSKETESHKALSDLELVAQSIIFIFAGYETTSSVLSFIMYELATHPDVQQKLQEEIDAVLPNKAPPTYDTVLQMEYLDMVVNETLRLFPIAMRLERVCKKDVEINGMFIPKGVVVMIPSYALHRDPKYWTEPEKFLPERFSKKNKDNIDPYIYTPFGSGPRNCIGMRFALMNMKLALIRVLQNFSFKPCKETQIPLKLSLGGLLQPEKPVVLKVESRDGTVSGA
Voltage-gated inwardly rectifying potassium channel KCNH2, sequence (Q12809 whole entry): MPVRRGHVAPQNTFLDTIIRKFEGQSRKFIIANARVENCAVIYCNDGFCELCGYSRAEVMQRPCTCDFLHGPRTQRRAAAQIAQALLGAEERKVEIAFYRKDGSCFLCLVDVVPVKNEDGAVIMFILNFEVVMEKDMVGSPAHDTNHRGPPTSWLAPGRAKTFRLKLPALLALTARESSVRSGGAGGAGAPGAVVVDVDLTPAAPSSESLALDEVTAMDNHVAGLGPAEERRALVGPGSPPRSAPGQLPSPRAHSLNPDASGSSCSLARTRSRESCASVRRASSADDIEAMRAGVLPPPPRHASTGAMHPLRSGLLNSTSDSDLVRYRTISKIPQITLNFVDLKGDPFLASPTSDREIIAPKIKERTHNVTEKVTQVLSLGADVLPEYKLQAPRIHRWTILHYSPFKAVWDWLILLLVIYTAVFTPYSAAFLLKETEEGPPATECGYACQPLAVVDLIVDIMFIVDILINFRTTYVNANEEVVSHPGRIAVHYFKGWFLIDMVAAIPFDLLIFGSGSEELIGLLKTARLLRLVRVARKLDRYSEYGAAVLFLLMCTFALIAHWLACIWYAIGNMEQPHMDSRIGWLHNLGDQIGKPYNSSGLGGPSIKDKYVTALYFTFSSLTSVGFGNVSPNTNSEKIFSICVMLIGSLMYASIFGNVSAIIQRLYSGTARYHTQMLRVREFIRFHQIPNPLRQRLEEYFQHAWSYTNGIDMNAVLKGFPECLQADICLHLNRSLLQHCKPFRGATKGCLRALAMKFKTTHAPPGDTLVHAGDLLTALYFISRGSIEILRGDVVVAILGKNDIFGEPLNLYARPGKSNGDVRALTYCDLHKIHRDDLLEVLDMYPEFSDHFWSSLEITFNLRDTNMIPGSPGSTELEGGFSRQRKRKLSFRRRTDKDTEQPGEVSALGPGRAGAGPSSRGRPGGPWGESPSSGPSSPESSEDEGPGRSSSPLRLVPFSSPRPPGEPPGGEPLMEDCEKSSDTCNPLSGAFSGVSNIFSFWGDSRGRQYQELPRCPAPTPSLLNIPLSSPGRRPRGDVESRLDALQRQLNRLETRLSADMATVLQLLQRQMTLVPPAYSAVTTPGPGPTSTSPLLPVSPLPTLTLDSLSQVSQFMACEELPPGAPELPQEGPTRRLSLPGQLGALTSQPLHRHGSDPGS
CYP2C9, sequence (P11712 whole entry): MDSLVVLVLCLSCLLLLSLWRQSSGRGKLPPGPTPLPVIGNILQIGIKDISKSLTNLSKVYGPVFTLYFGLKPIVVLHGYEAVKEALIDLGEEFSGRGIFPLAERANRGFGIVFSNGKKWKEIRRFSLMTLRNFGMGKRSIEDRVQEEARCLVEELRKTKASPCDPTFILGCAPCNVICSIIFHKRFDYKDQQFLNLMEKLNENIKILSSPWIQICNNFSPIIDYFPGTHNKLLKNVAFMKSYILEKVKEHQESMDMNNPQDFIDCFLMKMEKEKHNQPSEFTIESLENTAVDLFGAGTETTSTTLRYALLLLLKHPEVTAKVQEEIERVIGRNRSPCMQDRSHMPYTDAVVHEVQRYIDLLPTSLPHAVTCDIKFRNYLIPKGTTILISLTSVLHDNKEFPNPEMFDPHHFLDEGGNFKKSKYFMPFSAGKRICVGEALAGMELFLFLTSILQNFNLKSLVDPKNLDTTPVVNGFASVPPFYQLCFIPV
CYP2D6, sequence (P10635 whole entry): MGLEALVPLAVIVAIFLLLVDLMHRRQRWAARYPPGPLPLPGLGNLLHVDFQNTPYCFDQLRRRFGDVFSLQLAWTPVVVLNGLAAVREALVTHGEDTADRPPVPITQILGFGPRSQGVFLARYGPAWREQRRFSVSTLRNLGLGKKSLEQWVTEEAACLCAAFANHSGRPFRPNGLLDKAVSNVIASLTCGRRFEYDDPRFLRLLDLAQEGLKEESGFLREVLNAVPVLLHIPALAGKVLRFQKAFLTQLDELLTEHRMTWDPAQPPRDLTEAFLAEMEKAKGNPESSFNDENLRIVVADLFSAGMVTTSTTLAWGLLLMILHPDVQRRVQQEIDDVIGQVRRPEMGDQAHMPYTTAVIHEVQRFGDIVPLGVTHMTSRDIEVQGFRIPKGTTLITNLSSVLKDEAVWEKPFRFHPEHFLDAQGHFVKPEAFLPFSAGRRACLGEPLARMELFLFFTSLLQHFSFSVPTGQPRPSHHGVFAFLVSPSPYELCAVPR
MAP kinase-interacting serine/threonine-protein kinase 2 (Homo sapiens), sequence (Q9HBH9 whole entry, looked up): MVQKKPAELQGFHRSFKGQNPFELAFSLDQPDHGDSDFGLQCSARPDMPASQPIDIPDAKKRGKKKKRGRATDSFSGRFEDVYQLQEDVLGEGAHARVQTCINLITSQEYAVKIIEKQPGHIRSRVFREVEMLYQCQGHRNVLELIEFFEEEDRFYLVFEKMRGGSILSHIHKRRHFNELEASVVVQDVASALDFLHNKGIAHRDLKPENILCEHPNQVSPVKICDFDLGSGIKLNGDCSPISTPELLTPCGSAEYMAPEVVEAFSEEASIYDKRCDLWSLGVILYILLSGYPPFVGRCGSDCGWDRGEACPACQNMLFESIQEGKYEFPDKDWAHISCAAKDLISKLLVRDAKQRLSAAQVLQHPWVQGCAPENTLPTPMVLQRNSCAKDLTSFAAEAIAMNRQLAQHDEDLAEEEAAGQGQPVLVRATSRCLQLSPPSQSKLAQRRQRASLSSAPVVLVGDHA
MAP kinase-interacting serine/threonine-protein kinase 1 (Homo sapiens), sequence (Q9BUB5 whole entry, looked up): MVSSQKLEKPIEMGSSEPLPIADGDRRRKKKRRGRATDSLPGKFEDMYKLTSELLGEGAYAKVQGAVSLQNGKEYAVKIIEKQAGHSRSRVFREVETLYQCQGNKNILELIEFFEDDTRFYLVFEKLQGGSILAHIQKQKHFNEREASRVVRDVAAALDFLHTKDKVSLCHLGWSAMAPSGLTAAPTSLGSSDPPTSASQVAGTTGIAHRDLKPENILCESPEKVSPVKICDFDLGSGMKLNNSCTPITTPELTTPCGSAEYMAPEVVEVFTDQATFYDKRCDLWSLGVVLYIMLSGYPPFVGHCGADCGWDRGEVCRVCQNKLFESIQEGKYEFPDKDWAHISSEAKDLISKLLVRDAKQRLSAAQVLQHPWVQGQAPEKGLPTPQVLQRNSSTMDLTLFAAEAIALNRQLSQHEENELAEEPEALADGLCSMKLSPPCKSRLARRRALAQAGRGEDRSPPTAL

Compound | clearance [1] | Vd [2] | half-life [3] | Tmax [4] | AUC(0-t) [5] | bioavailability [6] | half-life [7] | half-life [8] | half-life [9] | half-life [10] | fraction unbound [11] | fraction unbound [12] | fraction unbound [13] | fraction unbound [14] | IC50 [15] | IC50 [16] | inhibition at 10 µM (CYP2C9) | inhibition at 10 µM (CYP2D6) | inhibition at 10 µM (CYP3A4 [17]) | inhibition at 10 µM (CYP3A4 [18]) | other results
CC(C)C[C@](C)(N)COc1ccc(-c2ccnc(C(F)F)c2)c2nccn12 | 11.7 mL/min/kg | 18 L/kg | 17 h | 1.2 h | 9150 ng·h/mL | 103% | 1.47 h | 0.717 h | 0.583 h | 3.07 h | 0.193 | 0.128 | 0.185 | 0.129 | 11.9 µM | 51 µM | < 20% | < 20% | < 20% | < 20% | half-life [19]: 46.4 h; AUC(0-t) [20]: 4640 ng·h/mL; Tmax [21]: 5.3 h; bioavailability [22]: 118%; Vd [23]: 25 L/kg; half-life [24]: 10.3 h; clearance [25]: 31.7 mL/min/kg; AUC(0-t) [26]: 2270 ng·h/mL; Tmax [27]: 1 h; bioavailability [28]: 140%; Vd [29]: 14 L/kg; half-life [30]: 3.3 h; clearance [31]: 48.3 mL/min/kg; Activity (Rattus norvegicus): Active; Compound Exhibited Comparable Efficacy To Lx9211; inhibition [32]: 97%; inhibition [33]: 91%; inhibition [34]: 88%; inhibition [35]: 65%; inhibition [36]: 60%; inhibition [37]: 39%
CC(C)C[C@](C)(N)COc1ccc(-c2ccnc(C(F)F)c2)c2cncn12 | – | – | – | 0.8 h | 2340 ng·h/mL | – | – | – | – | – | – | – | – | – | – | – | – | – | – | – | Cmax [38]: 407 ng/mL; half-life [39]: 3.2 h
CC(C)C[C@](C)(N)COc1ccc(-c2ccnc(C(F)F)c2)n2cncc12 | 45 mL/min/kg | 11 L/kg | 2.8 h | 1 h | 4550 ng·h/mL | 143% | 2.12 h | 2.23 h | 1.85 h | 1.72 h | 0.23 | 0.107 | 0.213 | 0.195 | 30 µM | 43 µM | < 20% | 81.1% | < 20% | < 20% | AUC(0-t) [40]: 318 ng·h/mL; Cmax [38]: 706 ng/mL; half-life [39]: 3.27 h
CC(C)C[C@](C)(N)COc1ccc(-c2ccnc(C(F)F)c2)c2nncn12 | – | – | – | – | – | – | – | – | – | – | – | – | – | – | – | – | – | – | – | – | IC50 [41]: > 0.02 µM
CC(C)C[C@](C)(N)COc1ccc(-c2ccnc(C(F)F)c2)n2ccnc12 | – | – | – | – | – | – | – | – | – | – | – | – | – | – | – | – | – | – | – | – | IC50 [41]: > 0.02 µM
